The source of these data is ChEMBL document CHEMBL4184149, “Discovery and process development of a novel TACE inhibitor for the topical treatment of psoriasis” (Bioorg Med Chem, 2018).

In brackets after ≈: the same amount, converted by molar mass. Activity calls are given as the source filed them. The rule behind the calls is not given here.

The nature of data set [1]: Aqueous solubility of the compound in PBS at pH 7.4 at 20 degC after 24 hrs by HPLC analysis. The format is physicochemical.
Data set [2] can be described thus: Solubility of the compound in propylene glycol/ethanol96 at 30 mg/ml after 24 hrs by UV-spectrometric analysis. The format is physicochemical. The settings on record: propylene glycol/ethanol96.
The nature of data set [3]: Intrinsic clearance in human hepatocytes assessed per million cells at 1 uM by LC-MS/MS analysis. The format is ADME, cell-based, Hepatocyte. Conditions: human hepatocytes, read-out: CLH.
The nature of data set [4]: Photoirritancy factor, ratio of EC50 for human neonatal keratinocytes under dark condition to EC50 for human neonatal keratinocytes under 5 J/cm2 UV light exposure. Conditions: read-out: Ratio EC50. The format is toxicity.
Data set [5] has as its target T1, Disintegrin and metalloproteinase domain-containing protein 10 (Homo sapiens, UniProt O14672).
T1 sequence (O14672 whole entry): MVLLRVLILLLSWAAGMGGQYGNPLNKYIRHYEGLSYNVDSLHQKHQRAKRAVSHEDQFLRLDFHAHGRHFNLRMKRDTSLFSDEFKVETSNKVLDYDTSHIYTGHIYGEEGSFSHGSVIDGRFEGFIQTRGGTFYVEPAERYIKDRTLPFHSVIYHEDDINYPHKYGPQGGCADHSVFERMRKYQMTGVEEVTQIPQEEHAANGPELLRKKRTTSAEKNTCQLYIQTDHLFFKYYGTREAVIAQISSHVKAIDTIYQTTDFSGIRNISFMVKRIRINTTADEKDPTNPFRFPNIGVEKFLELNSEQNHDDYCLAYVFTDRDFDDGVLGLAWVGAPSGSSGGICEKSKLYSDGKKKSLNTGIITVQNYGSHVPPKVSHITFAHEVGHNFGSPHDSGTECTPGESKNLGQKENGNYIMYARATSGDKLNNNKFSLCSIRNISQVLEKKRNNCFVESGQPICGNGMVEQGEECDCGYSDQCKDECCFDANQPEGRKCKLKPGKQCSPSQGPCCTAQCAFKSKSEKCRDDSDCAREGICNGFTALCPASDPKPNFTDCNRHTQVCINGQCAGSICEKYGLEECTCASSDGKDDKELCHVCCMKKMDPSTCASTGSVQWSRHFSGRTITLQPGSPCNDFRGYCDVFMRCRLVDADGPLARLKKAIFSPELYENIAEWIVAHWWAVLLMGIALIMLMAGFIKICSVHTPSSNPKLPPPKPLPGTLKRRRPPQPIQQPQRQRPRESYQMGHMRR
The experiment in a line: Inhibition of ADAM10 (unknown origin).

In data set [6] the target is Macrophage metalloelastase (Homo sapiens, UniProt P39900). The experiment in a line: Inhibition of MMP12 (unknown origin).
Macrophage metalloelastase, sequence (P39900 whole entry): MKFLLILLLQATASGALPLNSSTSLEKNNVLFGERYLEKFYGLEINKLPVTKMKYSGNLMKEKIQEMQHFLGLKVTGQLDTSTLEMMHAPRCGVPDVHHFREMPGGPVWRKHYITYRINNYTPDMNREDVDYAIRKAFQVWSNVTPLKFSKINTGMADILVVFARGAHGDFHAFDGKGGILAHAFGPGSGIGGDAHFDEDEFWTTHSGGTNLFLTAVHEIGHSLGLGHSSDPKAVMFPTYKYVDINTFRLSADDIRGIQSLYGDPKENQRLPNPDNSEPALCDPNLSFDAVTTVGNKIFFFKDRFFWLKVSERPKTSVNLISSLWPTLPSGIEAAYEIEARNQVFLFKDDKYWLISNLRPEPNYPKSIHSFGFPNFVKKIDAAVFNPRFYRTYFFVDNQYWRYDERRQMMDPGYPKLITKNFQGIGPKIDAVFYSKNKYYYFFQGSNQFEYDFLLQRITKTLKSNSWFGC
The subject of the next data set is TK6. The experiment in a line: Genotoxicity in human TK6 cells in presence of rat S9 fraction by Giemsa staining based micronucleus assay. The format is toxicity, cell-based.
In data set [7] the target is Voltage-gated inwardly rectifying potassium channel KCNH2 (Homo sapiens, UniProt Q12809). Kind of data set: Inhibition of human ERG expressed in CHO-K1 cells assessed as reduction in tail current amplitude by patch clamp assay. The format is cell-based. (In general: The patch-clamp technique gives a direct electrical read-out from membranes.)
Voltage-gated inwardly rectifying potassium channel KCNH2, sequence (Q12809 whole entry): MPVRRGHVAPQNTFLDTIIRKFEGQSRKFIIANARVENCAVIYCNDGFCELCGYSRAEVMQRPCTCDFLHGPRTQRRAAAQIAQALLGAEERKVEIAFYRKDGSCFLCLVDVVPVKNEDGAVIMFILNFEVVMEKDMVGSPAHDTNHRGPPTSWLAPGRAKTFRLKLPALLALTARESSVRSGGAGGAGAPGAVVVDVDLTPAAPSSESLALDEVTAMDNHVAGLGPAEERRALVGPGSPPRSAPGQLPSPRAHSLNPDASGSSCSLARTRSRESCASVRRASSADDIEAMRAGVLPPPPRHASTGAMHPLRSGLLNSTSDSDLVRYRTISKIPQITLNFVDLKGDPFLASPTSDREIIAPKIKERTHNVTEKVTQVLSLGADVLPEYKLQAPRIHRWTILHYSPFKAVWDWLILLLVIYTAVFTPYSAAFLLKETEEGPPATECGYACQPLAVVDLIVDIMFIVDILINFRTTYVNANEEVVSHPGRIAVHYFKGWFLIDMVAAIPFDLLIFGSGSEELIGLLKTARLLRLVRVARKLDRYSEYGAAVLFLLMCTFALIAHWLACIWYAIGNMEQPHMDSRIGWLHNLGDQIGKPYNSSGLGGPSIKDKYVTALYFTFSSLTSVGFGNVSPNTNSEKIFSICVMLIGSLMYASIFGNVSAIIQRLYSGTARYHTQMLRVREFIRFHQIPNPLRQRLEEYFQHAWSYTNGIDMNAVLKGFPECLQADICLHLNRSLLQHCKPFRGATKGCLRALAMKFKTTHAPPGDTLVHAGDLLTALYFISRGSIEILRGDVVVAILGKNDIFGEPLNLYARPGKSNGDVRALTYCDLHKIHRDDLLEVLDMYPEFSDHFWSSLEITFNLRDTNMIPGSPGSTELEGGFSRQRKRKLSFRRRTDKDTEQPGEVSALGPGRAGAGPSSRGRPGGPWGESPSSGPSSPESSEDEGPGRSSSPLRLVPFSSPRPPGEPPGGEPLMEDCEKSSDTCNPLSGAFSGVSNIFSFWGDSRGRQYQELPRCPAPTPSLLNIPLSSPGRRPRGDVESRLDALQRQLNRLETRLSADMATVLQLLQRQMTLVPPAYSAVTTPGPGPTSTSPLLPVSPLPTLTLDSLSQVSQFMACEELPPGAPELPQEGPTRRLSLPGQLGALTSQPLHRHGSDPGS
Data set [8] deals with Mus musculus. The experiment in a line: Antiinflammatory activity in topically applied oxazolone-induced chronic skin inflammation hairless SKH1 mouse model assessed as decrease in skin lesions applied topically for 10 days in combination with oxazolone. The format is functional, organism-based.
In data set [9] the test system is Mus musculus. The experiment in a line: Antiinflammatory activity in topically applied oxazolone-induced chronic skin inflammation hairless SKH1 mouse model assessed as decrease in TNFalpha secretion applied topically for 10 days in combination with oxazolone. The format is functional, organism-based.
Data set [10] deals with Mus musculus. The experiment in a line: Antiinflammatory activity in topically applied oxazolone-induced chronic skin inflammation hairless SKH1 mouse model assessed as decrease in epidermis thickening applied topically for 10 days in combination with oxazolone. The format is functional, organism-based.

By solubility is commonly meant the dissolved amount per volume that the medium holds. The low end stands for a poorly soluble substance, the high end for a readily soluble substance. The term IC50 denotes the concentration that inhibits the measured activity by half. Regarding `Cc1cc(COc2ccc(S(=O)(=O)N(C)C3(C(=O)NO)CN(C(=O)C(C)C)C3)cc2)c2ccccc2n1`, the figures for the solubility at 24 h in data set [1] and in [2] were 0.084 mM (≈ 0.0442 mg/mL) and 56 to 57 mM (≈ 29.5 to 30 mg/mL), respectively. Moreover, the hepatocyte CLint at 1 µM in data set [3] turned out to be 8 µL/min/1e6 cells. Further, in [4], the selectivity ratio stood at 1. The figures for the IC50 in [5], in data set [6] and in data set [7] were 950 nM, 13 nM and more than 100000 nM, respectively. The Activity result with TK6 was “Non-Toxic”; with Mus musculus [8], “Dose-dependent effect”. The result in the data set with Mus musculus [9] and with Mus musculus [10] was Active.

For `Cc1cc(COc2ccc(S(=O)(=O)N(C)C3(C(=O)NO)CN(C(=O)CC(C)C)C3)cc2)c2ccccc2n1`, the solubility at 24 h in data set [1] amounted to 0.062 mM (≈ 0.0335 mg/mL); in data set [2], 45 mM (≈ 24.3 mg/mL). Moreover, in data set [3], the hepatocyte CLint at 1 µM stood at 14 µL/min/1e6 cells. In data set [4], the selectivity ratio is 1. Besides, the results for the 50% inhibitory concentration (IC50) in data set [5], in data set [6] and in data set [7] were 1300 nM, 6 nM and more than 100000 nM, respectively. In addition, the Activity entry in the data set on TK6 is on record as “Non-Toxic”.
